The text below walks through data of ChEMBL document CHEMBL3639024, “Azinone-substituted azapolycycle MCH-1 antagonists, methods of making, and use thereof” (2013).

The target of this test is Melanin-concentrating hormone receptor 1 (Homo sapiens, UniProt Q99705). Kind of test: Binding Assay: Evaluation of the affinity of compounds for the human MCH-1 receptor was accomplished using 4-(3,4,5-tritritiumbenzyloxy)-1-(1-(2-(pyrrolidin-1-yl)ethyl)-1H-indazol-5-yl)pyridin-2(1H)-one and membranes prepared from stable CHO-K1 cells expressing the human MCH1 receptor obtained from Euroscreen (Batch 1138). The format is cell membranes.
Melanin-concentrating hormone receptor 1, sequence (Q99705 whole entry): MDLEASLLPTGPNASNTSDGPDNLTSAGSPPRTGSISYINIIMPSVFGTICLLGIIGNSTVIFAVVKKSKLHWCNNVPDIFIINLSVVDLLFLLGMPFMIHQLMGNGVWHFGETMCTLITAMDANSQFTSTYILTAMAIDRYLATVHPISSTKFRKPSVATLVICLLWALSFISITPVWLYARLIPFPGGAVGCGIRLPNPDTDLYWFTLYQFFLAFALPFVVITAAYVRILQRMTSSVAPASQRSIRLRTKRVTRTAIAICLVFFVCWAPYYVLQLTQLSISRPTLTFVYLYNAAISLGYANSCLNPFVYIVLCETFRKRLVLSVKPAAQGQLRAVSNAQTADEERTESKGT

As to `Cn1c2c(c3ccc(-n4ccc(OCc5ccc(F)cn5)cc4=O)cc31)CN1CCCC1C2` (stereo unspecified), the Ki (in general, a measure of affinity in units of concentration, obtained from inhibition or displacement) is 9.7 nM.
